Legend:
[1] = system: moderate to severe idiopathic RLS subjects; test: Restless Legs Scale - 6 items (RLS-6); format: in vivo, human
Description: (§1) The study multi-centre, randomized, double-blind, parallel-groups, placebo-controlled study with 2 treatment arms, oral HPPD inhibitor (2-(2-nitro-4-trifluoromethylbenzoyl)-1,3-cyclohexanedione) and placebo. Subjects were randomized to either treatment with an HPPD inhibitor or placebo in a 2:1 ratio. The subjects were dosed with 4 mg on day 1, and 2 mg/day on days 2-14. The total duration of treatment with study drug for each subject was 14 consecutive days ending at the day of the final sleep lab assessment (Day 14), with a follow-up examination 29 days after Baseline.
(§2) The objective of this exploratory study was to show proof-of-concept of therapy with an exemplary HPPD inhibitor in moderate to severe idiopathic RLS subjects.
(§3) Efficacy parameters were changes between Baseline and end of treatment in objective measures of Periodic Limb Movements (PLM) and sleep efficiency and in investigator evaluations of severity of RLS symptoms as well as in subject's report on severity of RLS symptoms, sleep disturbances and depressive feelings. […]

[2] = Plasma level of HPPD inhibitor and plasma tyrosine at steady state, 2 mg QD vs. 2 mg Q2D (FIG. 3); format: in vivo
Description: FIG. 3 is a graphical comparison of the mean plasma level of an exemplary HPPD inhibitor with plasma tyrosine at steady state following 2 mg QD vs. 2 mg Q2D dosing.
FIG. 3 provides an example of plasma tyrosine levels which are essentially identical and independent of whether the HPPD inhibitor is administered once a day or once every two days.

[3] = system: moderate to severe idiopathic RLS subjects; test: IRLS scale, placebo-controlled study in RLS subjects; format: in vivo, human
Description: as §1, §2
(§4) Efficacy parameters were changes between Baseline and end of treatment in objective measures of Periodic Limb Movements (PLM) and sleep efficiency and in investigator evaluations of severity of RLS symptoms as well as in subject's report on severity of RLS symptoms, sleep disturbances and depressive feelings. Parameters measured included: • Periodic Limb Movement (PLM) Index, defined as the number of PLM events occurring during time-in-bed (PLMI/h TIB) • Periodic Limb Movements during Sleep Index, defined as the number of PLMs per hour of total sleep time (PLMSI/h TST) • PLM arousal index, defined as the number of PLM with arousals per hour of total sleep time (PLMSAI/h TST) • Periodic Limb Movements during wakefulness index, defined as the number of PLMs per hour occurring during wakefulness within time-in-bed (PLMWI/h TIB) • Sleep Efficiency (SE) expressed as the percentage total sleep time (TST) of total time in bed (TIB) • Total Sleep Time (TST) • Total number of arousals per TST • Sleep latency • Restless Legs Scale—6 items (RLS-6) (Kohnen et al, 2004) • IRLS total score change from start of treatment to end • Time to requiring rescue medication (defined as time to dropout due to the need of rescue medication for intolerable RLS symptoms) • Physicians' Global Impression, rated by the Clinical Global Impressions Scale (CGI): severity, change and treatment effect • CGI responders defined as the proportion of subjects who improved “much” or “very much” on CGI item “change”. • Patients' Global Impression (PGI) scale Item 1 (efficacy) • Medical Outcomes Study (MOS) Sleep Scale • Beck Depression Inventory (BDI) • In addition, a patient diary was to be completed between days 8 and 15 • HPPD inhibitor plasma concentrations at Baseline, end of treatment and follow-up • Tyrosine plasma concentration at Baseline, end of treatment and follow-up.

[4] = system: moderate to severe idiopathic RLS subjects; test: PSG measurements, Periodic Limb Movement (PLM) index; format: in vivo, human; conditions: log-transformed values on PSG measurements
Description: as §1, §2, §3

[5] = system: moderate to severe idiopathic RLS subjects; test: Beck Depression Inventory (BDI); format: in vivo, human
Description: as §1, §2, §3

[6] = system: moderate to severe idiopathic RLS subjects; test: Patient diary of RLS symptoms; format: in vivo, human
Description: as §1, §2, §4

[7] = system: moderate to severe idiopathic RLS subjects; test: Clinical Global Impressions Scale (CGI): severity, change and treatment effect; format: in vivo, human
Description: as §1, §2, §4

[8] = system: Subjects with RLS; test: Medical Outcomes Study (MOS) Sleep Scale, placebo-controlled study in RLS subjects; format: in vivo, human
Description: as §1, §4
Subjects with RLS received either placebo (7 subjects) or an HPPD inhibitor (13 subjects) given as 4 mg on day 1, then 2 mg per day for days 2-14 of the trial. Various parameters relevant to RLS were monitored during the course of treatment, in particular the quality of their sleep patterns using a standard assessment scale (Medical Outcomes Study (MOS) Sleep Scale). Individuals were asked to complete a standard evaluation of their ‘normal’ sleep experience at the start of the trial (Baseline) and again at the end of treatment (EoT), with the various parameters scored according to the attached document.
The MOS Sleep Scale is a comprehensive subject completed sleep questionnaire consisting of 12 items (Hays and Stewart, 1992; Hays et al., 2005). Each item measures a unique aspect or characteristic of sleep. Overall, the MOS Sleep Scale measures the following:
All items, except for item 2, were transformed in a ‘0-100’ scale.
For the analysis of the MOS sleep scale, the following subscales were determined as means of the involved items (in part, after reversing the ratings in the ‘0-100’ scale, denoted by (R) in the item sequence):
Subjects self-reported the length of time it took for them to fall asleep and the average number of hours of sleep each night. Scores for all other items range from 1 (all of the time) to 6 (none of the time).
The MOS Sleep Scale was completed at Baseline (Visit 2) and final examination (Visit 3).

[9] = EoT Visit, M-ITT, none of the placebo patients
[10] = EoT, PPS n = 13, 4 mg day 1, 2 mg/day days 2-14

**Q.** With `O=C1CCCC(=O)C1C(=O)c1ccc(C(F)(F)F)cc1[N+](=O)[O-]` [HPPD Inhibitor, 2-(2-nitro-4-trifluoromethylbenzoyl)-1,3-cyclohexanedione] as the compound, how does the “RLS-6, all subscales: median (mean) differences between Baseline and EoT vs placebo” value ([1]; Baseline to EoT) read?
**A.** more benefit than those treated with placebo

**Q.** What about the “RLS-6 RLS symptoms during the night: difference drug-placebo, LS mean” value ([1]; M-ITT, 95%-CI: −4.52, 0.97, p=0.1910 two-sided from ANCOVA) of the same compound?
**A.** −1.77

**Q.** And the “RLS-6 RLS symptoms when falling asleep: difference drug-placebo, LS mean” value ([1]; M-ITT, 95%-CI: −5.24, −0.01, p=0.0494 two-sided from ANCOVA)?
**A.** −2.62

**Q.** And the “steady state plasma tyrosine levels, once a day vs once in two days” value ([2]; 2 mg once a day vs 2 mg once in 2 days)?
**A.** substantially similar

**Q.** And the “plasma levels of the HPPD inhibitor, once in two day regimen vs once a day” value ([2]; 2 mg once in 2 days vs 2 mg once a day, steady state)?
**A.** lower

**Q.** And the “IRLS severity score: difference drug-placebo, LS mean” value ([3]; Baseline to EoT, M-ITT, 95%-CI: −9.75, 2.84, p=0.2636)?
**A.** −3.46

**Q.** And the “IRLS total score, difference vs placebo” value ([3]; Baseline to EoT, not seen for IRLS impact score)?
**A.** numerical differences between Baseline and EoT favouring

**Q.** What about the “subjects reporting only mild or moderate RLS symptoms (IRLS scale), number” value ([3]; EoT, M-ITT, placebo 2) of the same compound?
**A.** 9 subjects

**Q.** What about the “subjects reporting only mild or moderate RLS symptoms (IRLS scale), percentage” value ([3]; EoT, M-ITT, placebo 28.6%) of the same compound?
**A.** 64.3%

**Q.** And the “PLM index values, improvement as compared to placebo” value [4]?
**A.** slightly larger improvement

**Q.** And the “depressive symptoms, mean differences between Baseline and EoT vs placebo” value [5]?
**A.** larger reduction of depressive symptoms

**Q.** What about the “patient diary, RLS symptoms during the day when active: difference drug-placebo, LS mean” value ([6]; M-ITT, 95%-CI: −2.52, −0.04, p=0.0437 two-sided from ANCOVA) of the same compound?
**A.** −1.28

**Q.** And the “patient diary, RLS symptoms during the day: difference drug-placebo, LS mean” value ([6]; M-ITT, 95%-CI: −4.87, −0.27, p=0.0304 two-sided from ANCOVA)?
**A.** −2.57

**Q.** And the “patient diary, RLS symptoms when falling asleep: difference drug-placebo, LS mean” value ([6]; M-ITT, 95%-CI: −5.15, −0.13, p=0.0402 two-sided from ANCOVA)?
**A.** −2.64

**Q.** And the “patient diary, improvement of RLS symptoms during the night and during the day at rest, or during inactivity” value ([6]; vs placebo)?
**A.** Trends were found

**Q.** What about the “CGI severity item, improvement vs placebo” value ([7]; EoT) of the same compound?
**A.** larger improvement

**Q.** What about the “CGI severity: subjects not at all or only borderline ill, percentage” value ([7]; EoT, M-ITT) of the same compound?
**A.** 21.4%

**Q.** What about the “CGI severity: subjects not at all or only borderline ill, number” value ([7]; EoT, M-ITT, none on placebo) of the same compound?
**A.** 3 subjects

**Q.** What about the “CGI severity: subjects with moderate to severe illness, number” value ([7]; EoT, M-ITT, placebo 5) of the same compound?
**A.** 7 subjects

**Q.** What about the “CGI severity: subjects with moderate to severe illness, percentage” value ([7]; EoT, M-ITT, placebo 71.4%) of the same compound?
**A.** 50.0%

**Q.** What about the “CGI change of condition: subjects very much or much improved (responder analysis), number” value ([7]; M-ITT, placebo 2) of the same compound?
**A.** 7 subjects

**Q.** What about the “CGI change of condition: subjects very much or much improved (responder analysis), percentage” value ([7]; M-ITT, placebo 28.6%) of the same compound?
**A.** 50.0%

**Q.** What about the “CGI treatment effect rated as very good or moderate, number of subjects” value ([7]; placebo 3) of the same compound?
**A.** 8 subjects

**Q.** And the “CGI treatment effect rated as very good or moderate, percentage of subjects” value ([7]; placebo 42.9%)?
**A.** 57.1%

**Q.** And the “patients reporting optimal sleep (7-8 hours), number” value [8, 9]?
**A.** 5 patients

**Q.** And the “patients reporting optimal sleep (7-8 hours), percentage” value [8, 9]?
**A.** 35.7%

**Q.** And the “patients reporting optimal sleep (7-8 hours), number” value ([8]; EoT Visit, PPS)?
**A.** 4 patients

**Q.** What about the “MOS Short of Breath Scale, absolute, Median” value ([8]; EoT, PPS n = 13) of the same compound?
**A.** 0.0

**Q.** What about the “MOS Short of Breath Scale, absolute, Range” value ([8]; EoT, PPS n = 13) of the same compound?
**A.** 0.0-40.0

**Q.** And the “MOS Sleep Adequacy Scale, absolute, Median” value ([8]; EoT, PPS n = 13)?
**A.** 50.0

**Q.** What about the “MOS Sleep Adequacy Scale, absolute, Range” value ([8]; EoT, PPS n = 13) of the same compound?
**A.** 0.0-80.0

**Q.** What about the “MOS Sleep Problems Index I, absolute, Median” value ([8]; EoT, PPS n = 13) of the same compound?
**A.** 33.3

**Q.** What about the “MOS Sleep Problems Index I, absolute, Range” value ([8]; EoT, PPS n = 13) of the same compound?
**A.** 10.0-70.0

**Q.** What about the “MOS Sleep Problems Index II, absolute, Median” value ([8]; EoT, PPS n = 13) of the same compound?
**A.** 32.8

**Q.** What about the “MOS Sleep Problems Index II, absolute, Range” value ([8]; EoT, PPS n = 13) of the same compound?
**A.** 11.1-74.4

**Q.** And the “MOS Snoring Scale, absolute, Median” value ([8]; EoT, PPS n = 13)?
**A.** 20.0

**Q.** And the “MOS Snoring Scale, absolute, Range” value ([8]; EoT, PPS n = 13)?
**A.** 0.0-40.0

**Q.** And the “MOS Somnolence Scale, absolute, Median” value ([8]; EoT, PPS n = 13)?
**A.** 13.3

**Q.** What about the “MOS Somnolence Scale, absolute, Range” value ([8]; EoT, PPS n = 13) of the same compound?
**A.** 6.7-66.7

**Q.** And the “MOS Short of Breath Scale, absolute, M ± SD” value [8, 10]?
**A.** 9.2 ± 15.5

**Q.** What about the “MOS Sleep Disturbance Scale, absolute, Median” value [8, 10] of the same compound?
**A.** 43.8

**Q.** And the “MOS Sleep Disturbance Scale, absolute, Range” value [8, 10]?
**A.** 10.0-72.5
